*1 amine or outer side, *2 acyl side, *3 side chain or, on linkers, in order; H or OH if unused. Where a SMILES comes first, the peptide text is derived from it. Side-chain parts run from the residue outwards. [ ]: non-standard residue; d: D form. γGlu = O=C(O)[C@H](CCC(=O)[*:2])N[*:1]; Aib = CC(C)(N)C(=O)O

Results on 1 molecule are retold here after US20140031278A1, “Novel Glucagon Analogues” (NOVO NORDISK A/S, priority 2011, published 2014).

Data set [1] in a line: ThT fibrillation assay for physical stability (lag time, recovery). The settings on record: absence of increased ThT fluorescence noted as lag time of 45 hours. The data set is classed as physicochemical. An excerpt:
This has traditionally been measured by visual inspection of the sample. However, that kind of measurement is very subjective and depending on the observer. Therefore, the application of a small molecule indicator probe is much more advantageous. […] Enzymol.
Here, F is the ThT fluorescence at the time t.
The lag-time corresponds to the interval in which the critical mass of nucleus is built up and the apparent rate constant is the rate with which the fibril itself is formed.
Samples were prepared freshly before each assay. […] The pH of the sample was adjusted to the desired value using appropriate amounts of concentrated NaOH and HCl.
The plate was sealed with Scotch Pad (Qiagen).
Each run was initiated by incubating the plate at the assay temperature for 10 min. The plate was measured every 20 minutes for a desired period of time. Between each measurement, the plate was shaken and heated as described.
The supernatant was filtered through a 0.22 μm filter and an aliquot was transferred to a HPLC vial.
The data set may be fitted to Eq. (1).

For a further data set, the target named is T1, glucagon receptor (Homo sapiens, UniProt P47871).
T1 construct: expressed in transfected cells
T1 sequence (P47871 26-477): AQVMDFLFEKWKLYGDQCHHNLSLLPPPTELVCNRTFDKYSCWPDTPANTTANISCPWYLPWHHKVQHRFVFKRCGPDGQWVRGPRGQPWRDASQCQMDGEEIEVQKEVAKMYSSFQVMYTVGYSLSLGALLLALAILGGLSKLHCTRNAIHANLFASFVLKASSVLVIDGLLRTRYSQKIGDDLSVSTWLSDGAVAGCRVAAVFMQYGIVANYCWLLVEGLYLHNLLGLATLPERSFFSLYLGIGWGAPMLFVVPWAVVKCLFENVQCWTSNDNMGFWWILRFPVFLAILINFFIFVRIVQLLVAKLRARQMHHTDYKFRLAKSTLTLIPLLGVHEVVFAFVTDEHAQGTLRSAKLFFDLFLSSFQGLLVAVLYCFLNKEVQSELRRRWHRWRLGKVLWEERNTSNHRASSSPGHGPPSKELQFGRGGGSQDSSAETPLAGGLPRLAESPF
Briefly: Assay (I) Glucagon activity (cAMP biosensor, FLIPR). The settings on record: HEK-293 cells with cloned glucagon receptor and cAMP biosensor; end point after 6 minutes. The data set is classed as cell-based. Put shortly:
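HEK-293 cells expressing glucagon receptor with membrane cAMP biosensor (ACTOne), calcium-dye loaded with probenecid and a PDE inhibitor.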

As a reminder, the EC50 is the concentration giving half of the maximal effect. For the molecule `CC(=O)N[C@@H](CCC(=O)N[C@@H](CCC(=O)N[C@@H](CCC(=O)N[C@@H](CCC(=O)NCCCC[C@H](NC(=O)[C@@H](NC(=O)[C@H](Cc1ccccc1)NC(=O)[C@H](CCC(=O)O)NC(=O)[C@H](C)NC(=O)[C@H](C)NC(=O)[C@H](CCCNC(=N)N)NC(=O)[C@H](CCCNC(=N)N)NC(=O)[C@@H](NC(=O)[C@H](CC(=O)O)NC(=O)[C@H](CC(C)C)NC(=O)[C@H](Cc1ccc(O)cc1)NC(=O)[C@H](CCCCN)NC(=O)[C@H](CO)NC(=O)[C@H](Cc1ccc(O)cc1)NC(=O)[C@H](CC(=O)O)NC(=O)[C@H](CO)NC(=O)[C@@H](NC(=O)[C@H](Cc1ccccc1)NC(=O)[C@@H](NC(=O)CNC(=O)[C@H](Cc1c[nH]cn1)NC(=O)C(C)(C)NC(=O)[C@@H](N)Cc1c[nH]cn1)[C@@H](C)O)[C@@H](C)O)C(C)C)C(C)C)C(=O)N[C@@H](Cc1c[nH]c2ccccc12)C(=O)N[C@@H](CC(C)C)C(=O)N[C@@H](CC(C)C)C(=O)N[C@@H](CO)C(=O)N[C@H](C(=O)O)[C@@H](C)O)C(=O)O)C(=O)O)C(=O)O)C(=O)O` [Example 48, N^ε24-[(4S)-4-[[(4S)-4-[[(4S)-4-[[(4S)-4-acetamido-4-carboxybutanoyl]amino]-4-carboxybutanoyl]amino]-4-carboxybutanoyl]amino]-4-carboxybutanoyl]-[Aib^2,His^3,Val^16,Ala^20,Glu^21,Lys^24,Leu^27,Ser^28]-Glucagon] (H-H[Aib]HGTFTSDYSKYLDVRRAAEFVK([γGlu-γGlu-γGlu-γGlu-Ac])WLLST-OH), the “ThT assay [Lag time]” value in data set [1] is reported as 14 h. On glucagon receptor, this molecule yielded an EC50 of 5 pM.
